Measurements taken from patent US20210205236A1, “THERAPEUTIC COMBINATIONS OF BOSWELLIA EXTRACT AND CANNABINOIDS” (priority 2018, published 2021).
Like-named read-outs stand apart in the source and are kept apart here.

Assays:
CB1 receptor [1] = target: T1, CB1 receptor (Homo sapiens, UniProt P21554); format: cell-based
T1 construct: expressed in transfected cells

CB1 receptor [2] = target: T1, CB1 receptor; test: cell-based; format: cell-based
[3] = THCA or THC 10 μM without AKBA, CP55940-induced activity = 100%
[4] = THCA or THC 10 μM without AKBA, Table 3 data re-expressed as fold change

T1 sequence (P21554 whole entry): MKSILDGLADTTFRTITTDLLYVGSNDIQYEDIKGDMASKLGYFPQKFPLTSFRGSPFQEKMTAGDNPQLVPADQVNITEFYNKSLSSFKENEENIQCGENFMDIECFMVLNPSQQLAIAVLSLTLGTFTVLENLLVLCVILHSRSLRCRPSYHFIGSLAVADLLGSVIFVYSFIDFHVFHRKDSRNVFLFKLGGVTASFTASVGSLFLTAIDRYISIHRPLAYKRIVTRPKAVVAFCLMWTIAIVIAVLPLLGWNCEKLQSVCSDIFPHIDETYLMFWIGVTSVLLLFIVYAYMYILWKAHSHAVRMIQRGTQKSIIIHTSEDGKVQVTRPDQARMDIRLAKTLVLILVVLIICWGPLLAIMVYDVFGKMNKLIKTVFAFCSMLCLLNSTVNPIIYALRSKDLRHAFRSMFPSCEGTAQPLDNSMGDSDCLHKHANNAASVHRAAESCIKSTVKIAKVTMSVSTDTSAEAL

In the case of `CCCCCCC(C)(C)c1ccc([C@@H]2C[C@H](O)CC[C@H]2CCCO)c(O)c1` [CP, CP-55940, reference compound], the “Experiment 1 Fold change” value (CB1 receptor [1]) is reported as 2.5 Fold change, the “Experiment 2 Fold change” value (CB1 receptor [1]) is reported as 2.5 Fold change and the “Experiment 3 Fold change” value (CB1 receptor [1]) is reported as 2.5 Fold change. The “Experiment 1 Fold change” value (CB1 receptor [2]) was 2.5 Fold change, the “Experiment 2 Fold change” value (CB1 receptor [2]) was 2.5 Fold change and the “Experiment 3 Fold change” value (CB1 receptor [2]) was 2.5 Fold change. For the same compound, the activity at […] (CB1 receptor [2]; read-out: Experiment 1 % of activity) was 100%, the activity at […] (CB1 receptor [2]; read-out: Experiment 2 % of activity) was 100% and the activity at […] (CB1 receptor [2]; read-out: Experiment 3 % of activity) was 100%.

For `CCCCCc1cc2c(c(O)c1C(=O)O)[C@@H]1C=C(C)CC[C@H]1C(C)(C)O2` [THCA, tetrahydrocannabinolic acid], the “Conclusions: Is CB1R agonist effect observed?” value (CB1 receptor [1]; THCA or THC alone, 10 μM) was “Negative (Only treatments that the mean of three consecutive independent experiments shows a positive result: CB1R activity ≥ 2.5-fold increase or ≥ 4-fold increase are considered CB1R agonists or CB1R positive allosteric modulators)”, the “Experiment 1 Fold change” value (CB1 receptor [1]; THCA or THC alone, 10 μM) was 1.2 Fold change and the “Experiment 2 Fold change” value (CB1 receptor [1]; THCA or THC alone, 10 μM) was 1.1 Fold change. For the same compound, the “Experiment 3 Fold change” value (CB1 receptor [1]; THCA or THC alone, 10 μM) was 0.8 Fold change, the “Effect of cannabinoid on AKBA CB1R positive allosteric activity” value (CB1 receptor [2]; AKBA 50 and 100 μM, THCA 10 μM or CBD 1 μM) was “reduced the AKBA allosteric activity” and the “Conclusions: Is CB1R antagonist effect observed?” value (CB1 receptor [2]; THCA or THC 10 μM without AKBA, % of activity data) was “Negative (Only treatments that the mean of three consecutive independent experiments show a positive result (CB1R activity ≤ 50%) are considered antagonists of CB1R activity)”. The “Experiment 1 % of activity” value (CB1 receptor [2]; [3]) was 163.2%, the “Experiment 2 % of activity” value (CB1 receptor [2]; [3]) was 118.4% and the “Experiment 3 % of activity” value (CB1 receptor [2]; [3]) was 86.5%. For the same compound, the “Experiment 1 Fold change” value (CB1 receptor [2]; [4]) was 4.1 Fold change, the “Experiment 2 Fold change” value (CB1 receptor [2]; [4]) was 3.0 Fold change and the “Experiment 3 Fold change” value (CB1 receptor [2]; [4]) was 2.2 Fold change. The “Conclusions: Is CB1R antagonist effect observed?” value (CB1 receptor [2]; THCA or THC 10 μM without AKBA, positive allosteric activity, fold change data) was “Negative (Only treatments that the mean of three consecutive independent experiments show a positive result (CB1R activity ≥ 4-fold change) are considered positive CB1R allosteric agonists)”.
